Results on ten molecules are retold here after US8633161B2, “Therapeutic agents for the treatment of leukemia” (The Ohio State University Research Foundation, priority 2005, dated 2014).

Where a name gives a salt, the structure may show the parent alone. Read-outs that look alike come from different tables or passages of the source. Square brackets hold non-standard residues; d marks the D form. Peptide text beside a SMILES is read from it. * marks the point of attachment. Myristoyl = CCCCCCCCCCCCCC(=O)*; Nle = CCCC[C@H](N)C(=O)O A value given as a limit tells only on which side of the number the result lay.

For orientation: LD50 means the dose expected to kill half of the subjects tested.

The test system of one data set is BCR/ABL. In words: Western blot of BCR/ABL activity (phosphotyrosine) and expression. Particulars: for EC50: 18-24 hr, read-out: EC50 of downregulation of BCR/ABL; for BCR/ABL activity and expression: HA-PP2Ac-transduced 32D-BCR/ABL cells, okadaic acid 0.25 nM, 1 hr. Type of data set: cell-based.
Another data set has as its system NBM CD34+ cells. Briefly: Methylcellulose colony formation of normal CD34+ marrow cells. Type of data set: cell-based, human. The conditions noted are these: NBM CD34+ cells (normal CD34+ myeloid progenitors). The method, then: The Ph^1 K562, the BCR/ABL-expressing 32Dc13 and BaF3 cells, and their derivative lines were maintained in culture in IMDM/10% FBS/2 mM L-glutamine. The SET shRNA-, HA-PP2Ac-, and HA-PP2Ac/FLAG-SET-expressing cells were generated by retroviral infection followed by either antibiotic-mediated selection or FACS-mediated sorting of the GFP+ (green fluorescent protein) cells as described (Perrotti et al., (2002), Nat. Genet. 30:48-58). The following cells were kind gifts: 32D-p210^Y253H (B. Calabretta; TJU, Philadelphia, Pa.); BaF3-p210^T315I (B. Druker; OHSU, Portland, Oreg.); TonB210.1 (G. Daley; Harvard University, Cambridge, Mass.). Frozen samples of CD34+ bone marrow cells (NBM) from different healthy donors were from AllCells LLC (Berkeley, Calif.). […] Erythroid differentiation of K562 and derivative cell lines was assessed by o-Dianisidine (Fast Blue B; Sigma) staining of methylcellulose colonies. […]
Methylcellulose colony formation assays were carried out by plating 103 or 5×10^4 cells from BCR/ABL cell lines or primary human CML and mouse BMC, respectively, in 0.9% MethoCult H4230 (Stem Cell Technologies Inc.). […] Colonies (>125 μm) from cell lines and primary cells were scored 7 and 15 days later, respectively.

A further data set deals with T1, PP2A (Mus musculus, UniProt P63330).
T1 construct: endogenous in cells; host or cells: 32Dc13, 32D-BCR/ABL, 32D-BCR/ABL-T315I, 32D-p210 Y253H, BaF3-p210 T315I, K562, primary CML-BC CD34+ and NBM CD34+ cells
In words: PP2A IP phosphatase assay on lysates of treated cells. The data set is classed as cell-based. On the procedure:
PP2A phosphatase assays were carried out using the PP2A IP phosphatase assay kit (Upstate). Briefly, protein lysates (50 μg) in 100 μl of 20 mM HEPES (pH 7.0)/100 mM NaCl, 5 μg of PP2Ac antibody (Upstate), and 25 μl of Protein A-agarose were added to 400 μl of 50 mM Tris (pH 7.0)/100 mM CaCl2, and IPs were carried out at 4° C. for 2 hr. IPs were washed and used in the phosphatase reaction according to the manufacturer's protocol. Specificity of the PP2A assay was assessed by titration with okadaic acid and by ascertaining the absence of PP1a in the PP2A immunoprecipitates (Figure S2A). As internal control, the amount of immunoprecipitated PP2A was also monitored by anti-PP2Ac Western blots (Figure S2B).

The subject of data set [1] is 32D-BCR/ABL (T315I) cells. The conditions noted are these: for treated mice BCR/ABL negative and alive 18 weeks after cell injection: after 4 weeks from restarting therapy.
For data set [2] the following is noted: i.p.; cited from earlier work.
A further data set deals with 32D-BCR/ABL cells. The conditions noted are these: for mice still alive: 15 weeks postinjection.
For data set [3], the system named is BCR/ABL+ cell lines and primary CML-BC CD34+ cells. In words: Growth and apoptosis (annexin V) in liquid culture of BCR/ABL+ cells. The data set is classed as cell-based. The conditions noted are these: after 48 hr of forskolin treatment.
Data set [4] relates to BCR/ABL-transduced wild-type and SHP-1-deficient CD34+ mouse marrow cells. Briefly: Clonogenic assay of BCR/ABL-transduced mouse CD34+ marrow cells. Type of data set: cell-based. The conditions noted are these: forskolin 40 μM. The method, then:
Normal murine hematopoietic marrow cells were obtained from the femurs of wild-type and SHP-1-deficient “viable moth eaten” mice (The Jackson Laboratory). After hypotonic lysis and Ficoll separation, cells were used for the isolation of the CD34+/lin− fraction (Miltenyi Biotech). […] Pear, University of Pennsylvania, Philadelphia, Pa.). GFP+ (Iervolino et al., 2002) wild-type and SHP-1−/− CD34+ cells (10^6) were treated or not with forskolin (40 μM; 48 hr) and used in clonogenic assay or processed for Western blot. Where indicated, cells were treated with the following: […] Methylcellulose colony formation assays were carried out by plating 103 or 5×10^4 cells from BCR/ABL cell lines or primary human CML and mouse BMC, respectively, in 0.9% MethoCult H4230 (Stem Cell Technologies Inc.). Where indicated, cells were plated in the presence of rhIL-3 (100 ng/ml) or rhG-CSF (25 ng/ml).

Data set [5] has as its system imatinib-sensitive and -resistant BCR/ABL+ cell lines. In words: Methylcellulose colony formation of BCR/ABL cell lines. Type of data set: cell-based. On the procedure: Methylcellulose colony formation assays were carried out by plating 103 or 5×10^4 cells from BCR/ABL cell lines or primary human CML and mouse BMC, respectively, in 0.9% MethoCult H4230 (Stem Cell Technologies Inc.). Where indicated, cells were plated in the presence of rhIL-3 (100 ng/ml) or rhG-CSF (25 ng/ml). Colonies (>125 μm) from cell lines and primary cells were scored 7 and 15 days later, respectively.

Another data set relates to Akt. Briefly: Western blot of phosphorylated and total Akt. The data set is classed as cell-based. Particulars: okadaic acid (0.25 nM) added to FTY720. (In western blotting, separated proteins are transferred to a membrane and probed.)
Where [6] appears, read: BCR/ABL+ cell lines and CML-BC CD34+ marrow blasts, exposure 18-24 hr, forskolin 40 μM.
[7] abbreviates: PP2A-expressing 32D-BCR/ABL cells, 25 μM, 8 hr.

For `C=C[C@@]1(C)CC(=O)[C@@H]2[C@@]3(C)CCCC(C)(C)[C@@H]3[C@H](O)[C@H](OC(C)=O)[C@@]2(C)O1` [1,9-dideoxy-forskolin], the BCR/ABL phosphorylation entry in the data set on BCR/ABL (setting [6]) is given as “abolished”. The EC50 worked out at 25 µM in the data set on BCR/ABL (imatinib-resistant cells) and 18 µM in the data set with BCR/ABL (imatinib-sensitive cells). Besides, the “decrease in IL-3-dependent clonogenicity / cytokine-driven colony formation” value in the data set on NBM CD34+ cells is given as not above 15%. Also, at PP2A (setting [6]), the PP2A activity result is “enhanced”. The toxic side effects entry in data set [1] (8 mg/kg/week i.p., 18 weeks after cell injection) was “no signs of toxic side effects”. Also, in data set [1] (8 mg/kg/week i.p., after 4 weeks of treatment), the “survival and BCR/ABL status (nested RT-PCR, peripheral blood)” value is “all alive and BCR/ABL negative”. Further, the “treated mice BCR/ABL negative and alive 18 weeks after cell injection” value came to 50% in [1] (of cell-injected mice) and 100% in data set [1] (of treated mice). The mice alive in data set [1] (after 7 weeks of treatment) is listed as 70%. Further, the “remaining mice tested BCR/ABL+” value in [1] (after suspension of treatment) was found to be 50%. In addition, in data set [1] (within 4 weeks from the end of treatment), the “mice relapsed and died of acute leukemia-like disease” value is on record as 20%. Also, in data set [2], the median lethal dose (LD50) is given as 68 mg/kg.

For `CCCC[C@@H](C=O)NC(=O)[C@H](CC(C)C)NC(=O)[C@H](CC(C)C)NC(C)=O` [ALLN] (Ac-Leu-Leu-[Nle]-aldehyde), in the data set with BCR/ABL (setting [7]), the BCR/ABL expression result is reported as “restored” and the “PP2A-induced BCR/ABL tyrosine dephosphorylation” value was “did not prevent”.

On to `COC[C@@H]([C@H](O)[C@H](O)C(=O)NCC[C@H](C)c1nc(/C=C/C[C@@H]2O[C@]3(C[C@@H](O)[C@@H]2C)O[C@H]([C@H](C[C@H](O)[C@H](C)[C@H](O)[C@H](C)/C=C(C)/C(C)=C/C=C/C(C)=C\C#N)OC)[C@H](OP(=O)(O)O)C3(C)C)co1)N(C)C` [calyculin A], for which the “BCR/ABL activity and expression” value in the data set with BCR/ABL is “restored”.

Take `C=C[C@@]1(C)CC(=O)[C@]2(O)[C@@]3(C)[C@@H](O)CCC(C)(C)[C@@H]3[C@H](O)[C@H](OC(C)=O)[C@@]2(C)O1` [forskolin]: the EC50 amounted to 25 µM with BCR/ABL (imatinib-resistant cells) and 18 µM with BCR/ABL (imatinib-sensitive cells). For the same molecule, the mice still alive is reported as 100% with 32D-BCR/ABL cells (control mice that received only forskolin) and 40% with 32D-BCR/ABL cells (forskolin-treated cell-injected mice). Also, the median survival in the data set on 32D-BCR/ABL cells (forskolin-treated mice injected with 32D-BCR/ABL cells) is reported as 8 weeks. For the same molecule, the “percentage of apoptosis (annexin V+ cells)” value is 80% in data set [3] (BCR/ABL+ cell lines) and 95% in data set [3] (primary CML-BC cells). Besides, in [4], the “decrease of clonogenic potential” value is approximately 70%. Besides, the LD50 in data set [2] is reported as 67 mg/kg. In addition, the “inhibition of clonogenic potential (average)” value in [5] was 75%.

Consider `Cc1ccc(NC(=O)c2ccc(CN3CCN(C)CC3)cc2)cc1Nc1nccc(-c2cccnc2)n1` [imatinib, imatinib mesylate], for which the PP2A activity entry is “restored to normal levels” at PP2A (32D-BCR/ABL cells, 1 μM, 24 hr) and “did not rescue” at PP2A (imatinib-resistant BaF3p210 T315I cells).

As for `C=C1[C@@H](O)[C@@H]2O[C@]3(CC[C@H](/C=C/[C@@H](C)[C@@H]4CC(C)=C[C@@]5(O[C@H](C[C@@](C)(O)C(=O)O)CC[C@H]5O)O4)O3)CC[C@H]2O[C@@H]1[C@@H](O)C[C@H](C)[C@H]1O[C@@]2(CCCCO2)CC[C@H]1C` [okadaic acid], the “apoptosis and effect on PP2A targets (e.g. Akt dephosphorylation) observed with FTY720” value in the data set on Akt was “abrogates in part”. Besides, the “BCR/ABL activity and expression” value with BCR/ABL was “restored”.

Turning to `O.O.O.O.O.O.O.O.O.O=C([O-])[C@@H]1[O][Sb]2([O-])([O][Sb]34([OH])[O][C@H]([C@H](O)CO)[C@H]([O]3)[C@H](C(=O)[O-])[O]4)[O][C@H]([C@H](O)CO)[C@@H]1[O]2.[Na+].[Na+].[Na+]` [sodium stibogluconate], the BCR/ABL phosphorylation result in the data set on BCR/ABL (SET shRNA- and HA-PP2A-expressing 32D-BCR/ABL cells) is “restored”.

On to `Cn1c(=O)c2[nH]cnc2n(C)c1=O` [theophylline], for which the BCR/ABL expression/activity result in the data set on BCR/ABL (100 μM, 24 hr) is “did not affect”.

On to butyryl-forskolin, for which the BCR/ABL phosphorylation entry in the data set with BCR/ABL (setting [6]) is given as “abolished”. Further, the EC50 came to 25 µM in the data set with BCR/ABL (imatinib-resistant cells) and 18 µM with BCR/ABL (imatinib-sensitive cells). For the same molecule, the PP2A activity entry at PP2A (setting [6]) is “enhanced”.

With “myristoylated-PKI(14-22)-amide (Myristoyl-SGRTGRRNA-NH2; SMILES CCCCCCCCCCCCCC(=O)N[C@@H](CO)C(=O)NCC(=O)N[C@@H](CCCNC(=N)N)C(=O)N[C@H](C(=O)NCC(=O)N[C@@H](CCCNC(=N)N)C(=O)N[C@@H](CCCNC(=N)N)C(=O)N[C@@H](CC(N)=O)C(=O)N[C@@H](C)C(N)=O)[C@@H](C)O; UniProt P61925 14-22, looked up, fragment)”, the “forskolin-induced BCR/ABL downregulation” value in the data set on BCR/ABL (4 μM, 24 hr, with forskolin) was “did not inhibit”.
